# Data as given in patent US20250353853A1, “FLAVIVIRUS INHIBITORS” (IRBM S.P.A., priority 2022, published 2025).
# Structures can show the parent of a compound that is named as a salt.
# Tested on: ZIKV replicon in Vero cells
# Experiment: ZIKV Replication Inhibition Assay (replicon, NanoLuc)
# Conditions: Zika virus, Vero, 72 h, read-out: Zika Replicon EC50
row,Compound,EC50
1,"NC[C@H](Cc1ccccc1)[n+]1cc([N-]C(=O)Nc2cccc(C(F)(F)F)c2)on1 [Example 54, (S)-(3-(1-amino-3-phenylpropan-2-yl)-1,2,3-oxadiazol-3-ium-5-yl)((3-(trifluoromethyl)phenyl)carbamoyl)amide formate]",> 20 µM
2,"O=C([N-]c1c[n+](Cc2ccc(-c3ccc(CN4CCOCC4)cc3)cc2)no1)Nc1cccc(C(F)(F)F)c1 [Example 56, (3-((4′-(morpholinomethyl)-[1,1′-biphenyl]-4-yl)methyl)-1,2,3-oxadiazol-3-ium-5-yl)((3-(trifluoromethyl)phenyl)carbamoyl)amide]",1 to 20 µM
3,"NC[C@H](Cc1ccc(-c2ccccc2)cc1)[n+]1cc([N-]C(=O)Nc2cccc(C(F)(F)F)c2)on1 [Example 65, (S)-(3-(1-([1,1′-biphenyl]-4-yl)-3-aminopropan-2-yl)-1,2,3-oxadiazol-3-ium-5-yl)((3-(trifluoromethyl)phenyl)carbamoyl)amide formate]",1 to 20 µM
4,"NC[C@@H](Cc1ccc(-c2ccccc2)cc1)[n+]1cc([N-]C(=O)Nc2cccc(C(F)(F)F)c2)on1 [Example 66, (R)-(3-(1-([1,1′-biphenyl]-4-yl)-3-aminopropan-2-yl)-1,2,3-oxadiazol-3-ium-5-yl)((3-(trifluoromethyl)phenyl)carbamoyl)amide]",1 to 20 µM
5,"CC(=O)NC[C@H](Cc1ccc(-c2ccccc2)cc1)[n+]1cc([N-]C(=O)Nc2cccc(C(F)(F)F)c2)on1 [Example 70, (S)-(3-(1-(1,1′-biphenyl-4-yl)-3-acetamidopropan-2-yl)-1,2,3-oxadiazol-3-ium-5-yl)((3-(trifluoromethyl)phenyl)carbamoyl)amide]",> 20 µM
6,"CC(=O)NC[C@@H](Cc1ccc(-c2ccccc2)cc1)[n+]1cc([N-]C(=O)Nc2cccc(C(F)(F)F)c2)on1 [Example 71, (R)-(3-(1-([1,1′-biphenyl]-4-yl)-3-acetamidopropan-2-yl)-1,2,3-oxadiazol-3-ium-5-yl)((3-(trifluoromethyl)phenyl)carbamoyl)amide]",> 20 µM
7,"C[C@@H](c1ccc(Br)cc1)[n+]1cc([N-]C(=O)Nc2cncc(C(F)(F)F)c2)on1 [Example 76, (S)-(3-(1-(4-bromophenyl)ethyl)-1,2,3-oxadiazol-3-ium-5-yl)((5-(trifluoromethyl)pyridin-3-yl)carbamoyl)amide]",0.1 to 1 µM
8,"C[C@@H](c1ccc(-c2cncnc2)cc1)[n+]1cc([N-]C(=O)Nc2cncc(C(F)(F)F)c2)on1 [Example 77, (S)-(3-(1-(4-(pyrimidin-5-yl)phenyl)ethyl)-1,2,3-oxadiazol-3-ium-5-yl)((5-(trifluoromethyl)pyridin-3-yl)carbamoyl)amide]",0.1 to 1 µM
9,"Cc1noc(C)c1-c1ccc(C[n+]2cc([N-]C(=O)Nc3cccc(C(F)(F)F)c3)on2)cc1 [Example 78, (3-(4-(3,5-dimethylisoxazol-4-yl)benzyl)-1,2,3-oxadiazol-3-ium-5-yl)((3-(trifluoromethyl)phenyl)carbamoyl)amide]",< 0.1 µM
10,"Cc1ncncc1-c1ccc([C@H](C)[n+]2cc([N-]C(=O)Nc3cccc(C(F)(F)F)c3)on2)cc1 [Example 79, (S)-(3-(1-(4-(4-methylpyrimidin-5-yl)phenyl)ethyl)-1,2,3-oxadiazol-3-ium-5-yl)((3-(trifluoromethyl)phenyl)carbamoyl)amide]",< 0.1 µM
11,"O=C([N-]c1c[n+](Cc2ccc(-c3cncnc3C(F)(F)F)cc2)no1)Nc1cccc(C(F)(F)F)c1 [Example 80, ((3-(trifluoromethyl)phenyl)carbamoyl)(3-(4-(4-(trifluoromethyl)pyrimidin-5-yl)benzyl)-1,2,3-oxadiazol-3-ium-5-yl)amide]",< 0.1 µM
12,"Cc1ncnc(C)c1-c1ccc(C[n+]2cc([N-]C(=O)Nc3cccc(C(F)(F)F)c3)on2)cc1 [Example 81, (3-(4-(4,6-dimethylpyrimidin-5-yl)benzyl)-1,2,3-oxadiazol-3-ium-5-yl)((3-(trifluoromethyl)phenyl)carbamoyl)amide]",< 0.1 µM
13,"Cc1ncncc1-c1ccc([C@@H](C)[n+]2cc([N-]C(=O)Nc3cccc(C(F)(F)F)c3)on2)cc1 [Example 82, (R)-(3-(1-(4-(4-methylpyrimidin-5-yl)phenyl)ethyl)-1,2,3-oxadiazol-3-ium-5-yl)((3-(trifluoromethyl)phenyl)carbamoyl)amide]",0.1 to 1 µM
14,"Cc1ncncc1-c1cccc(C[n+]2cc([N-]C(=O)Nc3cccc(C(F)(F)F)c3)on2)c1 [Example 83, (3-(3-(4-methylpyrimidin-5-yl)benzyl)-1,2,3-oxadiazol-3-ium-5-yl)((3-(trifluoromethyl)phenyl)carbamoyl)amide]",0.1 to 1 µM
15,"COc1ncncc1-c1cccc(C[n+]2cc([N-]C(=O)Nc3cccc(C(F)(F)F)c3)on2)c1 [Example 84, (3-(3-(4-methoxypyrimidin-5-yl)benzyl)-1,2,3-oxadiazol-3-ium-5-yl)((3-(trifluoromethyl)phenyl)carbamoyl)amide]",0.1 to 1 µM
16,"Cc1ccncc1-c1ccc(C[n+]2cc([N-]C(=O)Nc3cccc(C(F)(F)F)c3)on2)cc1 [Example 85, (3-(4-(4-methylpyridin-3-yl)benzyl)-1,2,3-oxadiazol-3-ium-5-yl)((3-(trifluoromethyl)phenyl)carbamoyl)amide]",< 0.1 µM
17,"Cc1nccnc1-c1ccc(C[n+]2cc([N-]C(=O)Nc3cccc(C(F)(F)F)c3)on2)cc1 [Example 86, (3-(4-(3-methylpyrazin-2-yl)benzyl)-1,2,3-oxadiazol-3-ium-5-yl)((3-(trifluoromethyl)phenyl)carbamoyl)amide]",0.1 to 1 µM
18,"Cc1cc(C[n+]2cc([N-]C(=O)Nc3cccc(C(F)(F)F)c3)on2)ccc1-c1cncnc1 [Example 87, (3-(3-methyl-4-(pyrimidin-5-yl)benzyl)-1,2,3-oxadiazol-3-ium-5-yl)((3-(trifluoromethyl)phenyl)carbamoyl)amide]",0.1 to 1 µM
19,"Cc1cc(C[n+]2cc([N-]C(=O)Nc3cccc(C(F)(F)F)c3)on2)ccc1-c1c(C)noc1C [Example 88, (3-(4-(3,5-Dimethylisoxazol-4-yl)-3-methylbenzyl)-1,2,3-oxadiazol-3-ium-5-yl)((3-(trifluoromethyl)phenyl)carbamoyl)amide]",< 0.1 µM
20,"Cc1nc(OCCO)ncc1-c1ccc(C[n+]2cc([N-]C(=O)Nc3cccc(C(F)(F)F)c3)on2)cc1 [Example 89, (3-(4-(2-(2-hydroxyethoxy)-4-methylpyrimidin-5-yl)benzyl)-1,2,3-oxadiazol-3-ium-5-yl)((3-(trifluoromethyl)phenyl)carbamoyl)amide]",0.1 to 1 µM
21,"COc1ncc(-c2ccc(C[n+]3cc([N-]C(=O)Nc4cccc(C(F)(F)F)c4)on3)cc2)c(C)n1 [Example 90, (3-(4-(2-Methoxy-4-methylpyrimidin-5-yl)benzyl)-1,2,3-oxadiazol-3-ium-5-yl)((3-(trifluoromethyl)phenyl)carbamoyl)amide]",< 0.1 µM
22,"O=C([N-]c1c[n+](Cc2ccc(-c3cncnc3C3CC3)cc2)no1)Nc1cccc(C(F)(F)F)c1 [Example 91, (3-(4-(4-cyclopropylpyrimidin-5-yl)benzyl)-1,2,3-oxadiazol-3-ium-5-yl)((3-(trifluoromethyl)phenyl)carbamoyl)amide]",0.1 to 1 µM
23,"Cc1ncccc1-c1ccc(C[n+]2cc([N-]C(=O)Nc3cccc(C(F)(F)F)c3)on2)cc1 [Example 92, (3-(4-(2-methylpyridin-3-yl)benzyl)-1,2,3-oxadiazol-3-ium-5-yl)((3-(trifluoromethyl)phenyl)carbamoyl)amide]",< 0.1 µM
